Laboratory results: paper PMC12781162, “Human Protein Z as the Second Known Heme‐Binding Protein from the Endogenous Blood Coagulation Inhibitor System” (Chembiochem, 2025)
Like-named read-outs stand apart in the source and are kept apart here.

Tests used:
Human protein Z (PZ) = biological target: T1, Human protein Z (PZ) (Homo sapiens, UniProt P22891); assay: SPR binding of porphyrins to immobilized PZ (single-cycle kinetics); conditions: for Kd: heterogenous ligand model
T1 construct: purchased CellSystems GmbH HCPZ-0220
Protocol: SPR experiments were conducted on a Biacore 8K instrument (Cytiva) to investigate the interaction of PZ with heme, as established before.^[ [19] ^, [35] ^, [37] ^, [43] ^] In brief, PZ (10 µg mL^−1) was dissolved in 10 mM sodium acetate buffer (pH 3.5) and immobilized onto a CM5 sensor chip via standard amine coupling, resulting in a final immobilization level of 767 RU. Heme (stock solution in 30 mM NaOH) was further diluted in running buffer (10 mM HEPES, 150 mM NaCl, and 0.05% Tween 20, pH 7.4). The same was performed with zinc (II) protoporphyrin IX and protoporphyrin IX (Frontier Scientific). Binding kinetics were assessed by injecting seven increasing concentrations of heme (187.5–12,000 nM) in a single‐cycle kinetics format at 25 °C and a flow rate of 30 µL min^−1. Data analysis was performed by global fitting using Biacore Insight Evaluation Software, version 3.0.12.15655 (Cytiva).

PZ = biological target: T2, PZ (Homo sapiens, UniProt P22891); assay: Thrombin-inhibiting activity of PZ in the presence of heme (chromogenic assay); assay type: biochemical; conditions: PZ 10 nM, thrombin 30 nM, 30 min preincubation of PZ with heme; read-out: EC50 (increase of inhibitory activity of PZ against thrombin by heme)
T2 construct: purchased CellSystems GmbH HCPZ-0220 (PZ); HCXA-0060 (FXa)
Protocol: Herein, an earlier established chromogenic thrombin amidolytic activity assay system was thus used, inspired by Hogg and Stenflo.^[ [19] ^, [28] ^] PZ (final concentration: 10 nM) was first incubated for 30 min with different heme concentrations (final concentrations: 1–1000 nM). […] Finally, 5 µL of the substrate solution (H‐D‐Phe‐Pip‐Arg‐pNA x 2 HCl (S‐2238); final concentration: 273 µM) was added. Immediately, kinetic measurements at 405 nm were started, using an Infinite 200 Pro spectrophotometer. Heme only, thrombin only, and PZ‐heme only served as controls. For evaluation, the thrombin activity was determined as the change of absorbance per second and always normalized against the basal thrombin activity without PZ. Data were analyzed as the mean of triplicate and the IC50 was calculated by nonlinear regression (GraphPad Prism, version 10.5.0).

T1 sequence (P22891 41-400): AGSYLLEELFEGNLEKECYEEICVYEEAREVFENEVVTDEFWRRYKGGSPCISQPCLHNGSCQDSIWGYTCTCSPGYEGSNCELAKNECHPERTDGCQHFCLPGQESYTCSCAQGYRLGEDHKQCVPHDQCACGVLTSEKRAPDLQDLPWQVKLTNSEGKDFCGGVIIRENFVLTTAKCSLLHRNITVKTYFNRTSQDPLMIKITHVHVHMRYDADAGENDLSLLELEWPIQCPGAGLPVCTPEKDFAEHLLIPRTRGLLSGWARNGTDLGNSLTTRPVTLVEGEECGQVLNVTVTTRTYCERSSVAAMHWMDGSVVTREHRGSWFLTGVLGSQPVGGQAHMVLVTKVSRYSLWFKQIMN
T2 sequence (P22891 41-400): as above

k a1 (association rate) (Human protein Z (PZ); first binding event): 47300 M⁻¹ s⁻¹
k d1 (dissociation rate) (Human protein Z (PZ); first binding event): 0.00583 s⁻¹
Kd (Human protein Z (PZ); heme 187.5 nM–12 µM, 25 °C, read-out: K D1 (heme-binding affinity for PZ)): 123 nM
Kd (Human protein Z (PZ); read-out: K D2 (second binding event, likely unspecific)): 8570 nM
k a2 (association rate) (Human protein Z (PZ); second binding event): 845 M⁻¹ s⁻¹
k d2 (dissociation rate) (Human protein Z (PZ); second binding event): 0.00724 s⁻¹
EC50 (PZ): 12.7 ± 6.36 nM
Substance: Hemin [heme]
